In patent US10954252B1, “Inhibitors of human immunodeficiency virus replication” (ViiV HEALTHCARE UK (NO.5) LIMITED, priority 2017, dated 2021):

Assays:
uninfected MT2 cells = test: Compound cytotoxicity, XTT-based colorimetric assay; format: cell-based
Procedure, shortened: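 CC50 from uninfected MT2 cells run under the antiviral-assay protocol without virus. Viability read on day 4 by XTT colorimetric assay.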

[1] = tested on: recombinant NL4-3 virus (nef section replaced with Renilla luciferase gene) in MT-2 cells; test: HIV cell culture assay (antiviral activity, luciferase readout); format: cell-based; details: MT-2 cells infected for 4-5 days with recombinant NL4-3 luciferase virus
Procedure, shortened: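 NL4-3 reporter virus carrying Renilla luciferase in place of part of nef, produced in 293T cells, was used to infect MT-2 cells for 4-5 days with serial compound dilutions. Luciferase activity was read with a live-cell substrate; EC50 derived from the median effect equation.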

Compound | CC50 (uninfected MT2 cells; Table 1a, day 4, XTT) [nM] | EC50 ([1]; Table 1a) [nM] | CC50 (uninfected MT2 cells; Table 1, day 4, XTT) [nM] | EC50 ([1]; Table 1) [nM]
COc1ccc2nc([C@H](Cc3cc(F)cc(F)c3)NC(=O)Cn3nc(C(F)F)c4c3C(F)(F)[C@@H]3C[C@H]43)n(-c3ccc(Cl)c4c(NS(C)(=O)=O)nn(C)c34)c(=O)c2c1 (single isomer, unassigned) [Example 174] | > 1000 | 0.096 |  | 
COc1c(F)ccc2c(=O)n(-c3ccc(Cl)c4c(NS(C)(=O)=O)nn(C)c34)c([C@H](Cc3cc(F)cc(F)c3)NC(=O)Cn3ccc(C4CC4)n3)nc12 (single isomer, unassigned) [Example 112] | > 1000 | 0.51 |  | 
Cn1nc(NS(C)(=O)=O)c2c(Cl)ccc(-n3c([C@H](Cc4cc(F)cc(F)c4)NC(=O)Cn4nc(C(F)F)c5c4C(F)(F)[C@@H]4C[C@H]54)nc4cc(C(F)(F)F)ccc4c3=O)c21 (single isomer, unassigned) [Example 138] | > 1000 | 0.042 |  | 
Cn1nc(NS(C)(=O)=O)c2c(Cl)ccc(-n3c([C@H](Cc4cc(F)cc(F)c4)NC(=O)Cn4ccc(C5CC5)n4)nc4c(F)ccc(F)c4c3=O)c21 (single isomer, unassigned) [Example 146] | > 1000 | 0.62 |  | 
Cn1nc(NS(C)(=O)=O)c2c(Cl)ccc(-c3cc4ccccc4nc3C(Cc3cc(F)cc(F)c3)NC(=O)Cn3nc(C(F)F)c4c3C(F)(F)[C@@H]3C[C@H]43)c21 (single isomer, unassigned) [Example 8.2] |  |  | > 10000 | 180
Cn1nc(NS(C)(=O)=O)c2c(Cl)ccc(-n3c([C@H](Cc4cc(F)cc(F)c4)NC(=O)Cn4nc(C(F)F)c5c4C(F)(F)[C@@H]4C[C@H]54)nc4cc(CS(C)(=O)=O)ccc4c3=O)c21 (mixture of isomers) [Example 202, N—((S)-1-(3-(4-chloro-1-methyl-3-(methylsulfonamido)-1H-indazol-7-yl)-7-((methylsulfonyl)methyl)-4-oxo-3,4-dihydroquinazolin-2-yl)-2-(3,5-difluorophenyl)ethyl)-2-((3bS,4aR)-3-(difluoromethyl)-5,5-difluoro-3b,4,4a,5-tetrahydro-1H-cyclopropa[3,4]cyclopenta[1,2-c]pyrazol-1-yl)acetamide] | > 1000 | 0.3 |  | 
Cn1nc(NS(C)(=O)=O)c2c(Cl)ccc(-c3c(C(Cc4cc(F)cc(F)c4)NC(=O)Cn4nc(C(F)F)c5c4C(F)(F)[C@@H]4C[C@H]54)ncc4[nH]cnc34)c21 (single isomer, unassigned) [Example 7.5] |  |  | > 10000 | 1320
Cn1nc(NS(C)(=O)=O)c2c(Cl)ccc(-n3c([C@H](Cc4cc(F)cc(F)c4)NC(=O)Cn4ccc(C5CC5)n4)nc4cccc(F)c4c3=O)c21 (single isomer, unassigned) [Example 184] | > 1000 | 0.35 |  | 
O=C(Cc1c[nH]c2ccc(O)cc12)NC(Cc1cc(F)cc(F)c1)c1nc2cn[nH]c2cc1-c1ccc2scnc2c1 (single isomer, unassigned) [Example 3.4, N-(1-(6-(benzo[d]thiazol-5-yl)-1H-pyrazolo[4,3-b]pyridin-5-yl)-2-(3,5-difluorophenyl)ethyl)-2-(5-hydroxy-1H-indol-3-yl)acetamide] |  |  | 83900 | 470
Cn1nc(NS(C)(=O)=O)c2c(Cl)ccc(-n3c([C@H](Cc4cc(F)cc(F)c4)NC(=O)Cn4nc(C(F)F)c5c4C(F)(F)[C@@H]4C[C@H]54)nc4cccc(C(F)(F)F)c4c3=O)c21 (single isomer, unassigned) [Example 128] | > 1000 | 0.62 |  | 
Cn1nc(NS(C)(=O)=O)c2c(Cl)ccc(-c3cc4[nH]ccc4nc3C(Cc3cc(F)cc(F)c3)NC(=O)Cn3nc(C(F)F)c4c3C(F)(F)[C@@H]3C[C@H]43)c21 (single isomer, unassigned) [Example 5.4] |  |  | > 10000 | 0.2
